# From ChEMBL document CHEMBL3885861, “Open TG-GATES”
# Organism: Rattus norvegicus
# Assay: Open TG-GATES - Regimen: Single
# Format: toxicity, organism-based, Sprague-Dawley
# Set-up: regimen Single, gender Male, age 6 weeks
# Conditions: in vivo, po, 0 mg/kg, route gavage, dose level Control; for APTT / Bas / Eos / Fbg / Hb / Ht / Lym / MCH / MCHC / MCV / Mono / Neu / PT / Plat / RBC / Ret / WBC: tissue Blood; for KIDNEY_L / KIDNEY_R / KIDNEY_TOTAL: tissue Kidney; for LIVER: tissue Liver; for A/G / ALP / ALT / AST / BUN / CRE / Ca / Cl / DBIL / GLC / IP / K / LDH / Na / PL / RALB / TBIL / TC / TG / TP / gamma-GTP: tissue Plasma
compound,measurement,setting,value
CCC1(c2ccccc2)C(=O)NC(=O)NC1=O [PHENOBARBITAL],TERMINAL_BW,3 h,221.7 g
same,APTT,3 h,19.3 s
same,Bas,3 h,0.4%
same,Eos,3 h,1%
same,Fbg,3 h,219.2 mg/dL
same,Hb,3 h,13.6 g/dL
same,Ht,3 h,37.5%
same,Lym,3 h,72.8%
same,MCH,3 h,21.7 pg
same,MCHC,3 h,36.1%
same,MCV,3 h,60.2 fL
same,Mono,3 h,3%
same,Neu,3 h,21.6%
same,PT,3 h,11.9 s
same,Plat,3 h,113.7 x10_4/uL
same,RBC,3 h,623.8 x10_4/ul
same,Ret,3 h,7.9%
same,WBC,3 h,110.8 x10_2/uL
same,KIDNEY_L,3 h,1.1 g
same,KIDNEY_R,3 h,1 g
same,KIDNEY_TOTAL,3 h,2.1 g
same,LIVER,3 h,10.2 g
same,A/G,3 h,1.6
same,ALP,3 h,939.8 IU/L
same,ALT,3 h,38.4 IU/L
same,AST,3 h,73.4 IU/L
same,BUN,3 h,10.8 mg/dL
same,CRE,3 h,0.4 mg/dL
same,Ca,3 h,10.6 mg/dL
same,Cl,3 h,103.4 meq/L
same,DBIL,3 h,0.068 mg/dL
same,GLC,3 h,203.2 mg/dL
same,IP,3 h,9.4 mg/dL
same,K,3 h,4.2 meq/L
same,LDH,3 h,162.6 IU/L
same,Na,3 h,141.6 meq/L
same,PL,3 h,140.4 mg/dL
same,RALB,3 h,3.3 g/dL
same,TBIL,3 h,0.1 mg/dL
same,TC,3 h,78 mg/dL
same,TG,3 h,55 mg/dL
same,TP,3 h,5.3 g/dL
same,gamma-GTP,3 h,0.8 IU/L
same,TERMINAL_BW,6 h,218.3 g
same,APTT,6 h,19 s
same,Bas,6 h,0.2%
same,Eos,6 h,1%
same,Fbg,6 h,227.8 mg/dL
same,Hb,6 h,14 g/dL
same,Ht,6 h,39.1%
same,Lym,6 h,73.6%
same,MCH,6 h,21.4 pg
same,MCHC,6 h,35.9%
same,MCV,6 h,59.5 fL
same,Mono,6 h,3.2%
same,Neu,6 h,21.4%
same,PT,6 h,12.2 s
same,Plat,6 h,119.4 x10_4/uL
same,RBC,6 h,656.8 x10_4/ul
same,Ret,6 h,8.1%
same,WBC,6 h,105 x10_2/uL
same,KIDNEY_L,6 h,1 g
same,KIDNEY_R,6 h,1 g
same,KIDNEY_TOTAL,6 h,2 g
same,LIVER,6 h,9.6 g
same,A/G,6 h,1.6
same,ALP,6 h,907.4 IU/L
same,ALT,6 h,34.4 IU/L
same,AST,6 h,70.2 IU/L
same,BUN,6 h,9.8 mg/dL
same,CRE,6 h,0.4 mg/dL
same,Ca,6 h,10.8 mg/dL
same,Cl,6 h,103.8 meq/L
same,DBIL,6 h,0.074 mg/dL
same,GLC,6 h,193.2 mg/dL
same,IP,6 h,9.3 mg/dL
same,K,6 h,4 meq/L
same,LDH,6 h,167.6 IU/L
same,Na,6 h,142 meq/L
same,PL,6 h,135.6 mg/dL
same,RALB,6 h,3.3 g/dL
same,TBIL,6 h,0.1 mg/dL
same,TC,6 h,73.8 mg/dL
same,TG,6 h,65.4 mg/dL
same,TP,6 h,5.4 g/dL
same,gamma-GTP,6 h,1 IU/L
same,TERMINAL_BW,9 h,217.1 g
same,APTT,9 h,19 s
same,Bas,9 h,0.4%
same,Eos,9 h,1.2%
same,Fbg,9 h,223.8 mg/dL
same,Hb,9 h,13.6 g/dL
same,Ht,9 h,37.9%
same,Lym,9 h,77%
same,MCH,9 h,21.5 pg
same,MCHC,9 h,36%
same,MCV,9 h,59.8 fL
same,Mono,9 h,2.8%
same,Neu,9 h,18%
same,PT,9 h,12.3 s
same,Plat,9 h,127.9 x10_4/uL
same,RBC,9 h,634.2 x10_4/ul
same,Ret,9 h,7.7%
same,WBC,9 h,93.6 x10_2/uL
same,KIDNEY_L,9 h,1 g
same,KIDNEY_R,9 h,1 g
same,KIDNEY_TOTAL,9 h,2 g
same,LIVER,9 h,9 g
same,A/G,9 h,1.6
same,ALP,9 h,763.4 IU/L
same,ALT,9 h,31.4 IU/L
same,AST,9 h,63.6 IU/L
same,BUN,9 h,9.4 mg/dL
same,CRE,9 h,0.3 mg/dL
same,Ca,9 h,10.6 mg/dL
same,Cl,9 h,103.8 meq/L
same,DBIL,9 h,0.062 mg/dL
same,GLC,9 h,202 mg/dL
same,IP,9 h,10.4 mg/dL
same,K,9 h,3.9 meq/L
same,LDH,9 h,122.2 IU/L
same,Na,9 h,142.2 meq/L
same,PL,9 h,129.8 mg/dL
same,RALB,9 h,3.4 g/dL
same,TBIL,9 h,0.1 mg/dL
same,TC,9 h,70.6 mg/dL
same,TG,9 h,35.4 mg/dL
same,TP,9 h,5.4 g/dL
same,gamma-GTP,9 h,1.2 IU/L
same,TERMINAL_BW,24 h,234.1 g
same,APTT,24 h,20.3 s
same,Bas,24 h,0.6%
same,Eos,24 h,1%
same,Fbg,24 h,221.2 mg/dL
same,Hb,24 h,13.4 g/dL
same,Ht,24 h,37.5%
same,Lym,24 h,77.6%
same,MCH,24 h,21 pg
same,MCHC,24 h,35.7%
same,MCV,24 h,58.9 fL
same,Mono,24 h,2.4%
same,Neu,24 h,18%
same,PT,24 h,11.7 s
same,Plat,24 h,132.6 x10_4/uL
same,RBC,24 h,637.2 x10_4/ul
same,Ret,24 h,7.4%
same,WBC,24 h,98.6 x10_2/uL
same,KIDNEY_L,24 h,1.1 g
same,KIDNEY_R,24 h,1.1 g
same,KIDNEY_TOTAL,24 h,2.2 g
same,LIVER,24 h,11.3 g
same,A/G,24 h,1.6
same,ALP,24 h,911.2 IU/L
same,ALT,24 h,35.8 IU/L
same,AST,24 h,70 IU/L
same,BUN,24 h,16.2 mg/dL
same,CRE,24 h,0.4 mg/dL
same,Ca,24 h,10.8 mg/dL
same,Cl,24 h,103.2 meq/L
same,DBIL,24 h,0.062 mg/dL
same,GLC,24 h,188.4 mg/dL
same,IP,24 h,7.6 mg/dL
same,K,24 h,4 meq/L
same,LDH,24 h,171.8 IU/L
same,Na,24 h,142 meq/L
same,PL,24 h,143 mg/dL
same,RALB,24 h,3.4 g/dL
same,TBIL,24 h,0.1 mg/dL
same,TC,24 h,72.2 mg/dL
same,TG,24 h,77.4 mg/dL
same,TP,24 h,5.6 g/dL
same,gamma-GTP,24 h,1.4 IU/L
